From patent publication US7053188B2, “Monoclonal antibodies specific for neoplasia-specific NADH:disulfide reductase” (Purdue Research Foundation, priority 2002, dated 2006)

Columns and labels:
[1] = system: tTIP; test: Direct assay of tTIP activity of HeLa plasma membranes with DTNA substrate; type: biochemical, human; conditions: no antibody
[2] = system: NADH oxidase of HeLa plasma membranes; conditions: background statement; cited from earlier work
[3] = system: NADH oxidase of normal sera; test: NADH oxidase (NOX) activity of pooled sera of normal volunteers; type: biochemical, human
Protocol: (§1) Pooled sera. Pooled sera were collected from the patient population of the Michiana Hematology-Oncology Clinic, South Bend, Ind. and from the patient population of St. Elizabeth Hospital of Lafayette, Ind. Only cancer patients with active disease (Stage III or Stage IV) were identified at the time of collections. Sera were frozen after collection and stored frozen at −20° C. Prior to assay, samples were thawed and maintained at 4° C. between thawing and assay.
(§2) Spectrophotometric tNOX Assay. NADH oxidase activity was determined as the disappearance of NADH measured at 340 nm with 430 nm as reference using an SLM Aminco (Lake Forest, Calif.) DW-2000 spectrophotometer in the dual wavelength mode of operation or a Hitachi (Tokyo, Japan) U3210 spectrophotometer at 340 nm with continuous recording over 5 or 10 min intervals once steady-state rates were obtained. The reaction mixture contained 50 mM Tris-Mes buffer (pH 7.0), 2 mM KCN to inhibit any potential mitochondrial oxidase activity, and 150 μM NADH in a total volume of 2.5 ml. Assay was at 37° C. with constant stirring. With purified fractions, 1 μM reduced glutathione was added to reduce the protein in the presence of substrate and human serum albumin, 0.1 mg/ml, as a protein source of thiols. After 10 min, 0.03% hydrogenperoxide was added (or oxidized glutathione) to reoxidize the protein under renaturing conditions and in the presence of substrate to start the reaction. A millimolar extinction coefficient of 6.22 was used to determine NADH disappearance. To determine capsaicin inhibition, capsaicin in DMSO was added to a final concentration of 1 μM (0.1% DMSO) and the rate of NADH oxidation determined over 10 min. Capsaicin at a final concentration of 100 μM (0.2% DMSO) was then added and the assay was continued for an additional 10 min.
(§3) NADH oxidase activity can also be measured using an Hitachi (Tokyo, Japan) U3210 spectrophotometer over 5 min intervals at 37° C. The activity was determined as the disappearance of NADH measured at 340 nm. […]

[4] = system: NADH oxidase of HeLa plasma membranes; test: NADH oxidase activity of HeLa S plasma membranes; type: biochemical, human; conditions: 37° C.
Protocol: as §2

[5] = system: tTIP; test: tTIP activity of sera of cancer patients, dithio-dipyridyl substrate; type: biochemical, human; conditions: Breast CA sera, without MAB 12.1
Description: An alternative assay procedure is the use of a dithio-dipyridyl substrate as described in Morré et al. (1999) Mol. Cell. Biochem. 207:7-13.

[6] = system: tNOX; test: NADH oxidase (NOX) activity of pooled sera of cancer patients; type: biochemical, human; conditions: no MAB
Protocol: as §1
Spectrophotometric tNOX Assay. NADH oxidase activity was determined as the disappearance of NADH measured at 340 nm with 430 nm as reference using an SLM Aminco (Lake Forest, Calif.) DW-2000 spectrophotometer in the dual wavelength mode of operation or a Hitachi (Tokyo, Japan) U3210 spectrophotometer at 340 nm with continuous recording over 5 or 10 min intervals once steady-state rates were obtained. […] To determine capsaicin inhibition, capsaicin in DMSO was added to a final concentration of 1 μM (0.1% DMSO) and the rate of NADH oxidation determined over 10 min. […]
as §3

[7] = system: tNOX; test: Immunoprecipitation of tNOX with MAB 12.1, supernatant activity assayed; type: biochemical, human; conditions: Preimmune
Protocol: Spectrophotometric tNOX Assay. NADH oxidase activity was determined as the disappearance of NADH measured at 340 nm with 430 nm as reference using an SLM Aminco (Lake Forest, Calif.) DW-2000 spectrophotometer in the dual wavelength mode of operation or a Hitachi (Tokyo, Japan) U3210 spectrophotometer at 340 nm with continuous recording over 5 or 10 min intervals once steady-state rates were obtained. The reaction mixture contained 50 mM Tris-Mes buffer (pH 7.0), 2 mM KCN to inhibit any potential mitochondrial oxidase activity, and 150 μM NADH in a total volume of 2.5 ml. Assay was at 37° C. with constant stirring. With purified fractions, 1 μM reduced glutathione was added to reduce the protein in the presence of substrate and human serum albumin, 0.1 mg/ml, as a protein source of thiols. After 10 min, 0.03% hydrogenperoxide was added (or oxidized glutathione) to reoxidize the protein under renaturing conditions and in the presence of substrate to start the reaction. A millimolar extinction coefficient of 6.22 was used to determine NADH disappearance. To determine capsaicin inhibition, capsaicin in DMSO was added to a final concentration of 1 μM (0.1% DMSO) and the rate of NADH oxidation determined over 10 min. Capsaicin at a final concentration of 100 μM (0.2% DMSO) was then added and the assay was continued for an additional 10 min. Immunoprecipitation. […]

[8] = cells incubated in 0.1 M sodium acetate, pH 5, 2 h
[9] = cells incubated in PBS, pH 7, 2 h

Row | SMILES | Km [1] | VMAX ([1]; estimated) | ability of HeLa plasma membrane vesicles to oxidize NADH (in words) [2] | NADH oxidation by pooled sera from normal patients (in words) ([3]; capsaicin 1 to 100 μM) | NOX activity of sera, +1 μM Cap ([3]; normal sera, no MAB, 1 μM capsaicin) | NOX activity of sera, + μM Cap ([3]; normal sera, no MAB, capsaicin (concentration not given)) | NADH oxidase activity, 1 μM capsaicin [4, 8] | NADH oxidase activity, 100 μM capsaicin [4, 8] | NADH oxidase activity, 1 μM capsaicin [4, 9] | NADH oxidase activity, 100 μM capsaicin [4, 9] | Capsaicin inhibition [5] | NOX activity of sera, +1 μM Cap ([6]; 1 μM capsaicin) | NOX activity of sera, + μM Cap ([6]; capsaicin (concentration not given)) | Supernatant activity, 1 μM capsaicin ([7]; 1 μM capsaicin) | Supernatant activity, 100 μM capsaicin ([7]; 100 μM capsaicin)
1 | O=C(O)c1ccc(SSc2ccc(C(=O)O)cn2)nc1 [DTNA, 6,6′-dithionicotinic acid] | 1500 µM | 1.5 nmoles/min/mg protein | – | – | – | – | – | – | – | – | – | – | – | – | –
2 | Cc1ccc(S(=O)(=O)NC(=O)Nc2ccc(Cl)cc2)cc1 [LY181984] | – | – | partially inhibited | – | – | – | – | – | – | – | – | – | – | – | –
3 | COc1cc(CNC(=O)CCCC/C=C/C(C)C)ccc1O [capsaicin, 8-methyl-N-vanillyl-6-noneamide] | – | – | partially inhibited | not inhibited | 0.7 ± 0.14 | 0.7 ± 0.16 | 0.2 ± 0.01 nmoles/min/mg plasma membrane protein | 0.15 ± 0.02 nmoles/min/mg plasma membrane protein | 0.2 ± 0.02 nmoles/min/mg plasma membrane protein | 0.2 ± 0.02 nmoles/min/mg plasma membrane protein | −0.6 | 1.0 ± 0.13 | 1.0 ± 0.17 | 0.6 ± 0.4 nmoles/min/100 μl serum | 0.5 nmoles/min/100 μl serum
